Reference: US11572590B2, “Methods for evaluating tumor cell spheroids using 3D microfluidic cell culture device” (Dana-Farber Cancer Institute, Inc., priority 2017, dated 2023)
Like-named read-outs stand apart in the source and are kept apart here.

Assays:
[1] = system: human CD4+ and CD8+ T cells; assay: IFNγ secretion by anti-CD3/anti-CD28 stimulated T cells; format: cell-based; conditions: dose-titration, 96 hours
Experimental: Freshly isolated human CD4+ and CD8+ T cells were obtained from AllCells (Alameda, Calif., USA). Cells were spun down and resuspended in serum free Xvivo15 media (Lonza Walkersville, Inc., Chicago, Ill., USA) supplemented with 5 ng/mL […] and incubated overnight at 37° C. Cells were plated on anti-CD3 coated plates (5 μg/mL OKT3, eBioscience, Dallas, Tex., USA, overnight) with 2 μg/mL anti-CD28 (eBioscience, Dallas, Tex., USA). Cells are treated in replicate plates with a dose-titration of Compound 1 for 24 hours for IL-2 and 96 hours for IFNγ. IL-2 and IFNγ in the supernatant were measured using single- or multi-plex immunoassay (Mesoscale Discovery, Rockville, Md., USA). Jurkat T cell leukemia cells (clone E61 obtained from ATCC) plated on anti-CD3 coated plates were treated with a dose titration of Compound 1 for 24 hours. IL-2 in the supernatant was measured as described above.

IKKε (IKBKE) = biological target: T1, IKKε (IKBKE) (Homo sapiens, UniProt Q14164); assay: SelectScreen Kinase Profiling, IC50 for IKKε (IKBKE); format: biochemical; conditions: ATP Km app, ZLYTE; for inhibition: IKBKE (IKK epsilon)
T1 sequence (Q14164 1-716): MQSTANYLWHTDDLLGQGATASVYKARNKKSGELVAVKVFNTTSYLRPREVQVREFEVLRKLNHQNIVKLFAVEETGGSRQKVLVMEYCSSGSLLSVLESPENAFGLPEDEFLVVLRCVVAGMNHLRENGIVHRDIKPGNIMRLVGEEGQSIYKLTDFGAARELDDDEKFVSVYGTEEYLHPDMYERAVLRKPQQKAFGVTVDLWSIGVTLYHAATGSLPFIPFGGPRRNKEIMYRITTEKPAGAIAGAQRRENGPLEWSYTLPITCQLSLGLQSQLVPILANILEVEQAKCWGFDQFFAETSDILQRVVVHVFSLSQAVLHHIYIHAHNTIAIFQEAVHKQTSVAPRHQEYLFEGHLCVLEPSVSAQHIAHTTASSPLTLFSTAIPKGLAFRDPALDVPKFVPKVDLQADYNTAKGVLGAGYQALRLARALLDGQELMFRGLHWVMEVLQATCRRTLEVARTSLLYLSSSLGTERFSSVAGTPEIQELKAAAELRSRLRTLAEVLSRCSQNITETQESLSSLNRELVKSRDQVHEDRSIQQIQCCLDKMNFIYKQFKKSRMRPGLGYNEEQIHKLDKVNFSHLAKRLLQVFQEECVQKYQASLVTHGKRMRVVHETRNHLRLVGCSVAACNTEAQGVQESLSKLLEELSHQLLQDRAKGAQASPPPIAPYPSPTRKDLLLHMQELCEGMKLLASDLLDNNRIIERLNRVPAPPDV
Experimental: (§1) Biochemical single point inhibition and IC50 concentrations for TBK1, IKKε (IKBKE), and off-target kinases were determined at ThermoFisher Scientific using SelectScreen Kinase Profiling Services (Madison, Wis., USA) (Tables S4A and S4B-1-7). To determine cellular potency, the human colorectal cancer carcinoma cell line HCT116 (ATCC, Manassas, Va.) was maintained in T175 flasks in complete RPMI medium; RPMI 1640 supplemented with 10% FBS, 1× Penicillin-Streptomycin solution and 1×MEM (non-essential amino acids). HCT116 cells were grown to 90-95% confluency in T175 flasks containing complete RPMI medium and transfected in bulk using Lipofectamine 2000 (Invitrogen, Carlsbad, Calif.) with 70 μg of ISG54-luciferase reporter plasmid (Elim Biopharmaceuticals Inc., Hayward, Calif.). The reporter plasmid contains a luciferase gene expression cassette under the transcriptional regulation of the promoter of the human interferon stimulated gene 54 (ISG54). Transfection of the cells was allowed to take place for 6 hours, after which the cells were harvested by treatment with 0.25% trypsin EDTA (Corning Inc., Corning, N.Y.). Trypsinized cells were added to 384-well poly-d-lysine treated black clear bottom tissue culture assay plates (Greiner Bio-One GmbH, Kremsmünster, Austria) at a density of 20,000 cells/well in 80 μL of complete RPMI medium and incubated overnight. After 16-18 hours post-transfection, the assay plates were washed with PBS (Corning Inc., Corning, N.Y.), followed by addition of 80 μL/well of serum-free RPMI 1640 medium containing 1× Penicillin-Streptomycin solution, 1×MEM and 350 nL of DMSO or titrations of Compound 1. Compound 1 titrations were generated by 1.5-fold dilution steps in two overlapping serial dilution series to generate a 40-point compound dose range. After incubation at 37° C. for 1 hour, the cells were stimulated with Poly(I:C) (InvivoGen, San Diego, Calif.) at a final concentration of 15 μg/mL in Optimem media (Life Technologies, Rockville, Md.). The assay plates were incubated for 5 hours at 37° C., followed by addition of One-Glo luciferase firefly reagent (Promega, Madison, Wis.) at 1:1 volume/well and luminescence was measured in an EnVision Multilabel Plate Reader (PerkinElmer, Santa Clara, Calif.). The EC50 values were calculated from the fit of the dose-response curves to a four-parameter equation. All EC50 values represent geometric mean values of a minimum of four determinations.

off-target kinases = off-target kinases (Homo sapiens, UniProt P12931); assay: SelectScreen Kinase Profiling, single point inhibition and IC50 for off-target kinases; format: biochemical; parameters: other: SRC N1; 1000 μM; ATP Km app; ZLYTE; conditions: SRC N1, ATP Km app, ZLYTE
off-target kinases, sequence (P12931 1-542 isoform P12931-2): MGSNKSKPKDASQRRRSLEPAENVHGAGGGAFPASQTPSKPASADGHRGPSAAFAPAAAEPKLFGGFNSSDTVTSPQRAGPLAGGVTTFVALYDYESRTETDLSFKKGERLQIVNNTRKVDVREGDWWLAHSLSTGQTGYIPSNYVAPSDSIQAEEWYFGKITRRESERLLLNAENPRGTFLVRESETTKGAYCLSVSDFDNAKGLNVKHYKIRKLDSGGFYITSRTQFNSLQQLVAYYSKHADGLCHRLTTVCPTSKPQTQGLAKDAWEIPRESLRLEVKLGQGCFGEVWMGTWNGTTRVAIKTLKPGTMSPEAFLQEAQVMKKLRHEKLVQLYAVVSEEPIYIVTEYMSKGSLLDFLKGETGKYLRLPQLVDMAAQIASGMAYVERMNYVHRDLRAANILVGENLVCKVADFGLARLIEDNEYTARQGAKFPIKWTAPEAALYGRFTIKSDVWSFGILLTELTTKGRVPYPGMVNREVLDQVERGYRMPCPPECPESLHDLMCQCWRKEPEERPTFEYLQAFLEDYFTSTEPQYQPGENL
Experimental: as §1, with “Compound 1 titrations were generated by 1.5-fold dilution steps in two overlapping serial dilution series to generate a 40-point compound dose range. After incubation at 37° C. for 1 hour, the cells were stimulated with Poly(I:C) (InvivoGen, San Diego, Calif.) at a final concentration of 15 μg/mL in Optimem media (Life Technologies, Rockville, Md.).” left out, “All EC50 values represent geometric mean values of a minimum of four determinations.” left out

N#Cc1cc(-c2ncnc(Nc3ccc(N4CCN(C5COC5)CC4)cc3)n2)ccc1OC1CCOCC1 [Compound 1, 5-(4-((4-(4-(oxetan-3-yl)piperazin-1-yl)phenyl)amino)-1,3,5-triazin-2-yl)-2-((tetrahydro-2H-pyran-4-yl)oxy)benzonitrile]
secretion of IFN-γ from purified CD4+ and CD8+ T cells [1]: enhanced secretion
inhibition (IKKε (IKBKE); read-out: % Inhibition 1): 106%
inhibition (IKKε (IKBKE); read-out: % Inhibition 2): 103%
inhibition (IKKε (IKBKE); read-out: % Inhibition Avg): 105%
Hillslope (IKKε (IKBKE)): 1.06
IC50 (IKKε (IKBKE)): 5.59 nM
fold selectivity (IKBKE) (IKKε (IKBKE); IC50 relative to IKBKE IC50): 1.0 fold
fold selectivity (TBK1) (IKKε (IKBKE); IC50 relative to TBK1 IC50): 5.4 fold
inhibition (off-target kinases; read-out: % Inhibition 1): 54%
inhibition (off-target kinases; read-out: % Inhibition 2): 60%
inhibition (off-target kinases; read-out: % Inhibition Avg): 57%
